Measurements published in patent US20230414762A1, “PROSTATE-SPECIFIC MEMBRANE ANTIGEN (PSMA)-TARGETED PRODRUG FOR SELECTIVE KILLING OF CELLS […]” (The Johns Hopkins University, priority 2020, published 2023).
Non-standard residues stand in square brackets, D forms with d. Residues, ends and D or L forms follow the SMILES beside them. *: point of attachment. Dolaproine = CO[C@@H]([C@@H]1CCCN1)[C@@H](C)C(=O)O; Dil = CC[C@H](C)[C@H](NC)[C@@H](CC(=O)O)OC; X2 = C[C@@H](N*)[C@@H](O)c1ccccc1; NMeV = CN[C@H](C(=O)O)C(C)C

How the values were obtained:
[1] = In vivo toxicity in healthy mice (weight, survival, histopathology); set-up: species or system C57BL/6 mice; conditions: healthy C57BL/6 mice, MMAE (free drug) 80 μg/kg IP daily for 30 days
Method: The potential toxicity of SBPD-1 was evaluated in immunocompetent animals. MMAE (80 μg/kg), SBPD-1 (160 μg/kg), and 5% DMSO were administered to healthy C57BL/6 mice (n=5). Animals were monitored for 80 days after initiation of administration. […] Lung, liver, kidneys, salivary and lacrimal glands were removed from all tested animals at Day 80 after initiation of SBPD-1 treatment. […] Peripheral blood also was obtained from mice injected with vehicle, SBPD-1, and healthy untreated animals, and prepared serum for chemistry studies (n=5).
Male C57BL/6 mice were purchased from Jackson Laboratory. Ten-week-old mice were injected with the indicated doses of MMAE (formulated in 5% DMSO), SBPD-1 (formulated in saline) or 5% DMSO intraperitoneally (daily for 30 days, n=5). Animals were monitored daily for weight changes and other abnormalities for 80 days. Animals were euthanized in a CO2 chamber at day 80, and blood, lung, liver, kidney, salivary gland, and lacrimal gland were collected for complete blood counts, blood chemistry, and histopathological analyses. Complete blood counts including white blood cells (WBC), red blood cells (RBC), hemoglobin (HGB), hematocrit (HCT), mean corpuscular volume (MCV), mean corpuscular hemoglobin (MCH), mean corpuscular hemoglobin concentration (MCHC), and platelet (PLT) were measured using scil Vet ABC™ Hematology Analyzer (scil animal care company, Gurnee, IL). Blood chemistry parameters including blood urea nitrogen (BUN), glucose (GLU), Alkaline Phosphatase (ALP), total protein (T-Pro), Alanine aminotransferase (ALT) and Creatinine (Cre) were measured with Spotchem EZ chemistry analyzer (Arkray USA, Edina, MN). Hematoxylin and eosin slides were generated for five organs and examined by certified veterinary pathologist.

PSMA+ PC3 PIP cells = experiment: In vitro cytotoxicity (XTT cell proliferation assay), PSMA+ PC3 PIP cells; format: cell-based, human
PSMA− PC3 flu cells = experiment: In vitro cytotoxicity (XTT cell proliferation assay), PSMA- PC3 flu cells; format: cell-based, human

SMILES: CC[C@H](C)[C@@H]([C@@H](CC(=O)N1CCC[C@H]1[C@H](OC)[C@@H](C)C(=O)N[C@H](C)[C@@H](O)c1ccccc1)OC)N(C)C(=O)[C@@H](NC(=O)[C@@H](NC)C(C)C)C(C)C [MMAE, monomethyl auristatin E] (H-[NMeV]V[Dil][Dolaproine]-X2)
- toxicity (weight loss, euthanasia) [1]: severe toxicity
- IC50 (PSMA+ PC3 PIP cells): 0.0392 nM
- IC50 (PSMA− PC3 flu cells): 0.04 nM
